From ChEMBL document CHEMBL1201862, “PubChem BioAssay data set” (2004)
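1) Cells in 96-well plates. 2) Compound, 48 h, 5 concentrations. 3) Linear interpolation between surrounding doses. 4) Unreached endpoint = highest concentration. At the GI50, growth is halved.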 Activity calls are given as the source filed them. No stated cut-off is given here; in the data, active = GI50 up to about 1.1 µM and inactive = higher.

Experiments:
Test in all cases: DTP human tumour cell line panel, 48 h
[1] = tested on: HOP-62
[2] = tested on: LOX IMVI
[3] = tested on: SF-268
[4] = tested on: DU-145
[5] = tested on: U-251
[6] = tested on: IGROV-1
[7] = tested on: NCI-H522
[8] = tested on: BT-549
[9] = tested on: SN12C
[10] = tested on: OVCAR-4
[11] = tested on: T47D
[12] = tested on: NCI-H460
[13] = tested on: SK-OV-3
[14] = tested on: K562
[15] = tested on: EKVX
[16] = tested on: MDA-MB-231
[17] = tested on: HT-29
[18] = tested on: NCI-H226
[19] = tested on: NCI-H23
[20] = tested on: A549
[21] = tested on: SF-295
[22] = tested on: ACHN
[23] = tested on: MOLT-4
[24] = tested on: KM12
[25] = tested on: UACC-257
[26] = tested on: SNB-19
[27] = tested on: 786-0
[28] = tested on: M14
[29] = tested on: SW-620
[30] = tested on: MDA-N
[31] = tested on: MDA-MB-435
[32] = tested on: HCT-15
[33] = tested on: NCI/ADR-RES
[34] = tested on: SR
[35] = tested on: RXF 393
[36] = tested on: HCC 2998
[37] = tested on: TK-10
[38] = tested on: SK-MEL-5
[39] = tested on: SNB-75
[40] = tested on: SK-MEL-2
[41] = tested on: OVCAR-5
[42] = tested on: MCF7
[43] = tested on: CAKI-1
[44] = tested on: OVCAR-3
[45] = tested on: UACC-62
[46] = tested on: PC-3
[47] = tested on: UO-31
[48] = tested on: HCT-116
[49] = tested on: OVCAR-8
[50] = tested on: CCRF-CEM
[51] = tested on: COLO 205
[52] = tested on: SK-MEL-28
[53] = tested on: RPMI-8226
[54] = tested on: A498
[55] = tested on: HOP-92

SMILES: CC1(C)O[C@@H](CP(c2cccc3ccccc23)c2cccc3ccccc23)[C@H](CP(c2cccc3ccccc23)c2cccc3ccccc23)O1
- GI50 [1]: > 100 µM (inactive)
- GI50 [2]: > 100 µM (inactive)
- GI50 [3]: > 100 µM (inactive)
- GI50 [4]: > 100 µM (inactive)
- GI50 [5]: > 100 µM (inactive)
- GI50 [6]: > 100 µM (inactive)
- GI50 [7]: > 100 µM (inactive)
- GI50 [8]: > 100 µM (inactive)
- GI50 [9]: > 100 µM (inactive)
- GI50 [10]: > 100 µM (inactive)
- GI50 [11]: > 100 µM (inactive)
- GI50 [12]: > 100 µM (inactive)
- GI50 [13]: > 100 µM (inactive)
- GI50 [14]: > 100 µM (inactive)
- GI50 [15]: > 100 µM (inactive)
- GI50 [16]: > 100 µM (inactive)
- GI50 [17]: > 100 µM (inactive)
- GI50 [18]: > 100 µM (inactive)
- GI50 [19]: > 100 µM (inactive)
- GI50 [20]: > 100 µM (inactive)
- GI50 [21]: > 100 µM (inactive)
- GI50 [22]: > 100 µM (inactive)
- GI50 [23]: > 100 µM (inactive)
- GI50 [24]: > 100 µM (inactive)
- GI50 [25]: > 100 µM (inactive)
- GI50 [26]: > 100 µM (inactive)
- GI50 [27]: > 100 µM (inactive)
- GI50 [28]: > 100 µM (inactive)
- GI50 [29]: > 100 µM (inactive)
- GI50 [30]: > 100 µM (inactive)
- GI50 [31]: > 100 µM (inactive)
- GI50 [32]: > 100 µM
- GI50 [33]: > 100 µM (inactive)
- GI50 [34]: > 100 µM (inactive)
- GI50 [35]: > 100 µM (inactive)
- GI50 [36]: > 100 µM (inactive)
- GI50 [37]: > 100 µM (inactive)
- GI50 [38]: > 100 µM (inactive)
- GI50 [39]: > 100 µM (inactive)
- GI50 [40]: > 100 µM (inactive)
- GI50 [41]: > 100 µM (inactive)
- GI50 [42]: > 100 µM (inactive)
- GI50 [43]: > 100 µM (inactive)
- GI50 [44]: > 100 µM (inactive)
- GI50 [45]: > 100 µM (inactive)
- GI50 [46]: > 100 µM (inactive)
- GI50 [47]: > 100 µM (inactive)
- GI50 [48]: > 100 µM (inactive)
- GI50 [49]: > 100 µM (inactive)
- GI50 [50]: > 100 µM (inactive)
- GI50 [51]: > 100 µM (inactive)
- GI50 [52]: > 100 µM (inactive)

SMILES: CN(C)C(=O)C(F)(F)C(c1ccc(F)cc1)C1C(=O)N(C)C(=O)N(C)C1=O (stereo unspecified)
- GI50 [1]: > 100 µM (inactive)
- GI50 [2]: > 100 µM (inactive)
- GI50 [3]: > 100 µM (inactive)
- GI50 [4]: > 100 µM (inactive)
- GI50 [5]: > 100 µM (inactive)
- GI50 [8]: > 100 µM (inactive)
- GI50 [10]: > 100 µM (inactive)
- GI50 [11]: > 100 µM (inactive)
- GI50 [12]: > 100 µM (inactive)
- GI50 [13]: > 100 µM (inactive)
- GI50 [15]: > 100 µM (inactive)
- GI50 [16]: > 100 µM (inactive)
- GI50 [18]: > 100 µM (inactive)
- GI50 [19]: > 100 µM (inactive)
- GI50 [20]: > 100 µM (inactive)
- GI50 [21]: > 100 µM (inactive)
- GI50 [22]: > 100 µM (inactive)
- GI50 [23]: > 100 µM (inactive)
- GI50 [53]: > 100 µM (inactive)
- GI50 [24]: > 100 µM (inactive)
- GI50 [25]: > 100 µM (inactive)
- GI50 [26]: > 100 µM (inactive)
- GI50 [54]: > 100 µM (inactive)
- GI50 [27]: > 100 µM (inactive)
- GI50 [28]: > 100 µM (inactive)
- GI50 [29]: > 100 µM (inactive)
- GI50 [31]: > 100 µM (inactive)
- GI50 [32]: > 100 µM
- GI50 [33]: > 100 µM (inactive)
- GI50 [55]: > 100 µM (inactive)
- GI50 [35]: > 100 µM (inactive)
- GI50 [36]: > 100 µM (inactive)
- GI50 [37]: > 100 µM (inactive)
- GI50 [38]: > 100 µM (inactive)
- GI50 [39]: > 100 µM (inactive)
- GI50 [40]: > 100 µM (inactive)
- GI50 [41]: > 100 µM (inactive)
- GI50 [42]: > 100 µM (inactive)
- GI50 [43]: > 100 µM (inactive)
- GI50 [44]: > 100 µM (inactive)
- GI50 [45]: > 100 µM (inactive)
- GI50 [46]: > 100 µM (inactive)
- GI50 [47]: > 100 µM (inactive)
- GI50 [48]: > 100 µM (inactive)
- GI50 [49]: > 100 µM (inactive)
- GI50 [50]: > 100 µM (inactive)
- GI50 [51]: > 100 µM (inactive)
- GI50 [52]: > 100 µM (inactive)

SMILES: CN(C)C1(N(C)C)Oc2c(c(=O)n(C)c(=O)n2C)C(c2ccc(F)cc2)C1(F)F (stereo unspecified)
- GI50 [1]: > 100 µM (inactive)
- GI50 [2]: > 100 µM (inactive)
- GI50 [3]: > 100 µM (inactive)
- GI50 [4]: > 100 µM (inactive)
- GI50 [5]: > 100 µM (inactive)
- GI50 [8]: > 100 µM (inactive)
- GI50 [10]: > 100 µM (inactive)
- GI50 [11]: > 100 µM (inactive)
- GI50 [12]: > 100 µM (inactive)
- GI50 [13]: > 100 µM (inactive)
- GI50 [15]: > 100 µM (inactive)
- GI50 [16]: > 100 µM (inactive)
- GI50 [18]: > 100 µM (inactive)
- GI50 [19]: > 100 µM (inactive)
- GI50 [20]: > 100 µM (inactive)
- GI50 [21]: > 100 µM (inactive)
- GI50 [22]: > 100 µM (inactive)
- GI50 [53]: > 100 µM (inactive)
- GI50 [24]: > 100 µM (inactive)
- GI50 [25]: > 100 µM (inactive)
- GI50 [26]: > 100 µM (inactive)
- GI50 [54]: > 100 µM (inactive)
- GI50 [27]: > 100 µM (inactive)
- GI50 [28]: > 100 µM (inactive)
- GI50 [29]: > 100 µM (inactive)
- GI50 [31]: > 100 µM (inactive)
- GI50 [32]: > 100 µM
- GI50 [33]: > 100 µM (inactive)
- GI50 [55]: > 100 µM (inactive)
- GI50 [35]: > 100 µM (inactive)
- GI50 [36]: > 100 µM (inactive)
- GI50 [37]: > 100 µM (inactive)
- GI50 [38]: > 100 µM (inactive)
- GI50 [39]: > 100 µM (inactive)
- GI50 [40]: > 100 µM (inactive)
- GI50 [41]: > 100 µM (inactive)
- GI50 [42]: > 100 µM (inactive)
- GI50 [43]: > 100 µM (inactive)
- GI50 [44]: > 100 µM (inactive)
- GI50 [45]: > 100 µM (inactive)
- GI50 [46]: > 100 µM (inactive)
- GI50 [47]: > 100 µM (inactive)
- GI50 [48]: > 100 µM (inactive)
- GI50 [50]: > 100 µM (inactive)
- GI50 [51]: > 100 µM (inactive)
- GI50 [52]: > 100 µM (inactive)
